Key:
Test in all cases: relative viability (nuclei count vs DMSO), 5 days (fraction); higher = more cells survive
[1] = compound: Cn1cc(-c2cnn3c(N)c(Br)c([C@@H]4CCCNC4)nc23)cn1 + CS(=O)(=O)CCNCc1ccc(-c2ccc3ncnc(Nc4ccc(OCc5cccc(F)c5)c(Cl)c4)c3c2)o1 [Lapatinib] (partner 2 µM)
Summary of the method: (§1)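 Relative viability equals treated-well nuclei counts divided by vehicle-well nuclei counts. Counts came from 4× images of lung cancer cell lines grown in 1536-well plates for 5 days after pin-tool dosing on the day after seeding. Dosing used one drug alone or a fixed anchor-drug dose plus five library-drug doses (not always all listed) in √10 steps, and values are medians of duplicate plates.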

[2] = compound: Cn1cc(-c2cnn3c(N)c(Br)c([C@@H]4CCCNC4)nc23)cn1 + C[C@@H](Oc1cc(-c2cnn(C3CCNCC3)c2)cnc1N)c1c(Cl)ccc(F)c1Cl [Crizotinib] (partner 1 µM)
Summary of the method: as §1

[3] = compound: Cn1cc(-c2cnn3c(N)c(Br)c([C@@H]4CCCNC4)nc23)cn1 + Cc1cc(Nc2cc(N3CCN(C)CC3)nc(Sc3ccc(NC(=O)C4CC4)cc3)n2)n[nH]1 [Tozasertib] (partner 0.1 µM)
Summary of the method: as §1

[4] = compound: Cn1cc(-c2cnn3c(N)c(Br)c([C@@H]4CCCNC4)nc23)cn1 + Nc1ncn([C@H]2C[C@H](O)[C@@H](CO)O2)c(=O)n1 [Decitabine] (partner 2 µM)
Summary of the method: as §1

Cell Line | relative viability ([1]; first compound 0.05 µM) | relative viability ([1]; first compound 0.1581 µM) | relative viability ([1]; first compound 0.5 µM) | relative viability ([1]; first compound 1.581 µM) | relative viability ([1]; first compound 5 µM) | relative viability ([2]; first compound 0.05 µM) | relative viability ([2]; first compound 0.1581 µM) | relative viability ([2]; first compound 0.5 µM) | relative viability ([2]; first compound 1.581 µM) | relative viability ([2]; first compound 5 µM) | relative viability ([3]; first compound 0.05 µM) | relative viability ([3]; first compound 0.1581 µM) | relative viability ([3]; first compound 0.5 µM) | relative viability ([3]; first compound 1.581 µM) | relative viability ([3]; first compound 5 µM) | relative viability ([4]; first compound 0.05 µM) | relative viability ([4]; first compound 0.1581 µM) | relative viability ([4]; first compound 0.5 µM) | relative viability ([4]; first compound 1.581 µM) | relative viability ([4]; first compound 5 µM)
NCI-H2126 | 0.743 | 0.847 | 0.753 | 0.642 | 0.817 | 1.1 | 1.09 | 1.07 | 0.932 | 1.03 | 0.809 | 0.819 | 0.774 | 0.611 | 0.644 | 0.544 | 0.581 | 0.563 | 0.526 | 0.632
NCI-H2170 | 0.26 | 0.252 | 0.289 | 0.282 | 0.286 | 1.19 | 1.21 | 1.19 | 1.16 | 1.12 | 0.78 | 0.789 | 0.644 | 0.894 | 0.855 | 0.503 | 0.491 | 0.459 | 0.473 | 0.516
NCI-H2347 | 0.919 | 1.03 | 1.05 | 0.902 | 0.645 | 0.63 | 0.588 | 0.788 | 0.668 | 0.637 | 0.539 | 0.563 | 0.518 | 0.49 | 0.44 | 0.611 | 0.649 | 0.637 | 0.662 | 0.621
NCI-H2405 | 1.06 | 1.17 | 1.01 | 0.993 | 0.85 | 0.884 | 0.849 | 0.794 | 0.765 | 0.611 | 0.733 | 0.784 | 0.723 | 0.743 | 0.498 | 0.747 | 0.819 | 0.776 | 0.71 | 0.713
NCI-H3122 | 1.1 | 1.07 | 1.07 | 1.04 | 1.05 | 0.305 | 0.275 | 0.255 | 0.273 | 0.263 | 0.508 | 0.403 | 0.401 | 0.283 | 0.329 | 0.427 | 0.454 | 0.329 | 0.413 | 0.511
PC-3 [JPC-3] | 0.423 | 0.504 | 0.474 | 0.416 | 0.482 | 1 | 1.01 | 1.02 | 0.835 | 1.12 | 0.812 | 0.986 | 0.94 | 0.75 | 0.91 | 0.759 | 0.86 |  | 0.808 | 0.853
